Results reported in patent US20230127944A1, “BROAD-SPECTRUM CARBAPENEMS” (priority 2019, published 2023).
≈ marks a conversion by molar mass, not a printed value.

Tests used:
Type in all cases: cell-based
[1] = test system: P. aeruginosa ΔmexAB-OprM (an efflux pump knockout); experiment: broth microdilution MIC assay, P. aeruginosa ΔmexAB-OprM; conditions: Pseudomonas aeruginosa, read-out: MIC, P. aeruginosa ΔmexAB-OprM
Description: (§1) To determine the ability of test compounds to inhibit the growth of bacterial strains, classic cell-based broth microdilution MIC assays were employed. MIC assays are performed according to CLSI methods except where otherwise noted (CLSI, 2011 and CLSI, 2009). The reference strains S. aureus ATCC 29213 (methicillin sensitive), S. aureus ATCC 33591 (methicillin-resistant), E. coli ATCC 25922 (wild-type/QC strain), P. aeruginosa ATCC 27853 (wild-type/QC strain), and the clinical isolate P. aeruginosa PA 8 were used to determine the ability of the exemplary carbapenem compounds to inhibit bacterial growth. An expanded panel of methicillin resistance S. aureus (MRSA) and Pseudomonas was also used to determine the ability of exemplary carbapenem compounds to inhibit bacterial growth across a broader representation of those species. To determine activity in MRSA and in addition to S. aureus ATCC 33591, S. aureus USA 300 and USA 600, some of the most common clones found to cause human infection, were also used. To further gauge the impact on the carbapenem compounds due to various resistance mechanisms in Pseudomonas, the following strains were included: P. aeruginosa 35151 (hyper-permeable strain), P. aeruginosa ΔmexAB-OprM (an efflux pump knockout), and P. aeruginosa Paβ-173 (a clinical isolate of reduced carbapenem susceptibility). Briefly, cryo-preserved bacterial cultures of clinical strains are streaked for isolation on appropriate agar medium, in this case Mueller Hinton II agar. Following incubation to allow formation of colonies, these plates are sealed with parafilm and stored refrigerated for up to two weeks. For preparation of assay inocula and to ensure low variability, at least 5 colonies are picked from the agar plates with an inoculating loop and aseptically transferred to a culture tube containing 3 mL of Mueller-Hinton Broth (supplemented with divalent cations to required levels based on Manufacturers' specification). The broth culture is grown for 3-5 hours at 37° C. with shaking at 200 rpm. Meanwhile, 2-fold serial dilutions of test compounds are conducted in a 96 well plate with a final volume of 75 μL per well at 2-fold the final desired concentration. After the dilution plates are set up the growing cultures are then diluted in a cuvette containing MH II broth and the optical density is measured at 600 nm. Inocula are diluted such that 75 μL of this culture in Mueller-Hinton Broth results in a starting bacterial concentration of 5×10^5 CFU/mL when added to the dilution plates. The plates are incubated 16-20 hours at 37° C. The MIC is read visually as the lowest concentration well with no bacterial growth.

S. aureus USA 300 = experiment: broth microdilution MIC assay, S. aureus USA300; conditions: Staphylococcus aureus; S. aureus USA300 (MRSA); read-out: MIC, S. aureus USA300
Description: as §1

[2] = test system: P. aeruginosa 35151 (hyper-permeable strain); experiment: broth microdilution MIC assay, P. aeruginosa 35151; conditions: Pseudomonas aeruginosa, read-out: MIC, P. aeruginosa 35151
Description: as §1

[3] = test system: S. aureus ATCC 33591 (methicillin-resistant); experiment: broth microdilution MIC assay, S. aureus 33591; conditions: Staphylococcus aureus, ATCC33591; S. aureus 33591, methicillin-resistant; read-out: MIC, S. aureus 33591
Description: as §1

P. aeruginosa Paeβ-17 = experiment: broth microdilution MIC assay, P. aeruginosa Paeβ-17; conditions: Pseudomonas aeruginosa, read-out: MIC, P. aeruginosa Paeβ-17
Description: as §1

[4] = test system: E. coli ATCC 25922 (wild-type/QC strain); experiment: broth microdilution MIC assay, E. coli 25922; conditions: Escherichia coli, ATCC25922; read-out: MIC, E. coli 25922
Description: as §1

S. aureus USA 600 = experiment: broth microdilution MIC assay, S. aureus USA600; conditions: Staphylococcus aureus; S. aureus USA600 (MRSA); read-out: MIC, S. aureus USA600
Description: as §1

[5] = test system: P. aeruginosa ATCC 27853 (wild-type/QC strain); experiment: broth microdilution MIC assay, P. aeruginosa 27853; conditions: Pseudomonas aeruginosa, ATCC27853; read-out: MIC, P. aeruginosa 27853
Description: as §1

Question: For `C[C@@H](O)[C@H]1C(=O)N2C(C(=O)O)=C(S[C@@H]3CCN(C[C@H]4CC[C@@H](NC(=N)N)CC4)C3)[C@H](C)[C@H]12` [Example 33, (4R,5S,6S)-3-(((R)-1-(((1S,4S)-4-guanidinocyclohexyl)methyl)pyrrolidin-3-yl)thio)-6-((R)-1-hydroxyethyl)-4-methyl-7-oxo-1-azabicyclo[3.2.0]hept-2-ene-2-carboxylic acid], which MIC [1] is on record?
Answer: Its MIC is 1 to 4 µg/mL (≈ 2.15 to 8.59 µM).

Question: And the MIC (S. aureus USA 300)?
Answer: Its MIC is under 1 µg/mL.

Question: What about the MIC [2] of the same compound?
Answer: Its MIC is under 1 µg/mL.

Question: What about the MIC [3] of the same compound?
Answer: Its MIC is 1 to 4 µg/mL (≈ 2.15 to 8.59 µM).

Question: What about the MIC (P. aeruginosa Paeβ-17) of the same compound?
Answer: The MIC was 8 to 32 µg/mL (≈ 17.2 to 68.7 µM).

Question: What about the MIC [4] of the same compound?
Answer: Its MIC is under 1 µg/mL.

Question: And the MIC (S. aureus USA 600)?
Answer: Its MIC is 1 to 4 µg/mL (≈ 2.15 to 8.59 µM).

Question: What about the MIC [5] of the same compound?
Answer: Its MIC is 1 to 4 µg/mL (≈ 2.15 to 8.59 µM).

Question: Which MIC [1] does the source give for `C[C@@H](O)[C@H]1C(=O)N2C(C(=O)O)=C(S[C@@H]3CCN([C@H]4CC[C@@H](NC(=N)N)CC4)C3)[C@H](C)[C@H]12` [Example 34, (4R,5S,6S)-3-(((R)-1-((1S,4S)-4-guanidinocyclohexyl)pyrrolidin-3-yl)thio)-6-((R)-1-hydroxyethyl)-4-methyl-7-oxo-1-azabicyclo[3.2.0]hept-2-ene-2-carboxylic acid] here?
Answer: The MIC was 1 to 4 µg/mL (≈ 2.21 to 8.86 µM).

Question: And the MIC (S. aureus USA 300)?
Answer: Its MIC is under 1 µg/mL.

Question: And the MIC [2]?
Answer: Its MIC is under 1 µg/mL.

Question: And the MIC [3]?
Answer: The MIC was 1 to 4 µg/mL (≈ 2.21 to 8.86 µM).

Question: And the MIC (P. aeruginosa Paeβ-17)?
Answer: Its MIC is 8 to 32 µg/mL (≈ 17.7 to 70.9 µM).

Question: And the MIC [4]?
Answer: Its MIC is under 1 µg/mL.

Question: And the MIC (S. aureus USA 600)?
Answer: Its MIC is 1 to 4 µg/mL (≈ 2.21 to 8.86 µM).

Question: And the MIC [5]?
Answer: The MIC was 1 to 4 µg/mL (≈ 2.21 to 8.86 µM).

Question: With `C[C@@H](O)[C@H]1C(=O)N2C(C(=O)O)=C(S[C@@H]3CCN([C@@H]4CC[C@@H](N)C4)C3)[C@H](C)[C@H]12` [Example 35, (4R,5S,6S)-3-(((R)-1-((1R,3R)-3-aminocyclopentyl)pyrrolidin-3-yl)thio)-6-((R)-1-hydroxyethyl)-4-methyl-7-oxo-1-azabicyclo[3.2.0]hept-2-ene-2-carboxylic acid] as the compound, how does the MIC [1] read?
Answer: Its MIC is 1 to 4 µg/mL (≈ 2.53 to 10.1 µM).

Question: And the MIC (S. aureus USA 300)?
Answer: The MIC was 1 to 4 µg/mL (≈ 2.53 to 10.1 µM).

Question: What about the MIC [2] of the same compound?
Answer: The MIC was under 1 µg/mL.

Question: And the MIC [3]?
Answer: Its MIC is 1 to 4 µg/mL (≈ 2.53 to 10.1 µM).

Question: What about the MIC (P. aeruginosa Paeβ-17) of the same compound?
Answer: The MIC was 8 to 32 µg/mL (≈ 20.2 to 80.9 µM).

Question: What about the MIC [4] of the same compound?
Answer: Its MIC is under 1 µg/mL.

Question: What about the MIC (S. aureus USA 600) of the same compound?
Answer: Its MIC is 1 to 4 µg/mL (≈ 2.53 to 10.1 µM).

Question: What about the MIC [5] of the same compound?
Answer: The MIC was 1 to 4 µg/mL (≈ 2.53 to 10.1 µM).

Question: `C[C@@H](O)[C@H]1C(=O)N2C(C(=O)O)=C(S[C@@H]3CCN([C@H]4CC[C@@H](N)C4)C3)[C@H](C)[C@H]12` [Example 36, (4R,5S,6S)-3-(((R)-1-((1S,3R)-3-aminocyclopentyl)pyrrolidin-3-yl)thio)-6-((R)-1-hydroxyethyl)-4-methyl-7-oxo-1-azabicyclo[3.2.0]hept-2-ene-2-carboxylic acid] was tested. Which MIC [1] did it give?
Answer: The MIC was 1 to 4 µg/mL (≈ 2.53 to 10.1 µM).

Question: What about the MIC (S. aureus USA 300) of the same compound?
Answer: The MIC was 1 to 4 µg/mL (≈ 2.53 to 10.1 µM).

Question: And the MIC [2]?
Answer: The MIC was under 1 µg/mL.

Question: And the MIC [3]?
Answer: The MIC was 1 to 4 µg/mL (≈ 2.53 to 10.1 µM).

Question: And the MIC (P. aeruginosa Paeβ-17)?
Answer: Its MIC is 8 to 32 µg/mL (≈ 20.2 to 80.9 µM).

Question: And the MIC [4]?
Answer: The MIC was under 1 µg/mL.

Question: And the MIC (S. aureus USA 600)?
Answer: The MIC was 1 to 4 µg/mL (≈ 2.53 to 10.1 µM).

Question: What about the MIC [5] of the same compound?
Answer: The MIC was 1 to 4 µg/mL (≈ 2.53 to 10.1 µM).

Question: What does the source list for `C[C@@H](O)[C@H]1C(=O)N2C(C(=O)O)=C(SC3CN(C4CCNC4)C3)[C@H](C)[C@H]12` (stereo partly drawn) [Example 37, (4R,5S,6S)-6-((R)-1-hydroxyethyl)-4-methyl-7-oxo-3-((1-(pyrrolidin-3-yl)azetidin-3-yl)thio)-1-azabicyclo[3.2.0]hept-2-ene-2-carboxylic acid]?
Answer: MIC [1]: 1 to 4 µg/mL (≈ 2.72 to 10.9 µM); MIC (S. aureus USA 300): 1 to 4 µg/mL (≈ 2.72 to 10.9 µM); MIC [2]: < 1 µg/mL; MIC [3]: 8 to 32 µg/mL (≈ 21.8 to 87.1 µM); MIC (P. aeruginosa Paeβ-17): 8 to 32 µg/mL (≈ 21.8 to 87.1 µM); MIC [4]: < 1 µg/mL; MIC (S. aureus USA 600): 1 to 4 µg/mL (≈ 2.72 to 10.9 µM); MIC [5]: 8 to 32 µg/mL (≈ 21.8 to 87.1 µM)

Question: Which results are given for `C[C@@H](O)[C@H]1C(=O)N2C(C(=O)O)=C(S[C@H]3C[C@H](NC4CCNCC4)C3)[C@H](C)[C@H]12` [Example 38, (4R,5S,6S)-6-((R)-1-hydroxyethyl)-4-methyl-7-oxo-3-(((1R,3R)-3-(piperidin-4-ylamino)cyclobutyl)thio)-1-azabicyclo[3.2.0]hept-2-ene-2-carboxylic acid]?
Answer: MIC [1]: 1 to 4 µg/mL (≈ 2.53 to 10.1 µM); MIC (S. aureus USA 300): 1 to 4 µg/mL (≈ 2.53 to 10.1 µM); MIC [2]: < 1 µg/mL; MIC [3]: 8 to 32 µg/mL (≈ 20.2 to 80.9 µM); MIC (P. aeruginosa Paeβ-17): 8 to 32 µg/mL (≈ 20.2 to 80.9 µM); MIC [4]: < 1 µg/mL; MIC (S. aureus USA 600): 1 to 4 µg/mL (≈ 2.53 to 10.1 µM); MIC [5]: 8 to 32 µg/mL (≈ 20.2 to 80.9 µM)
